According to ChEMBL document CHEMBL4251622, “Design, synthesis, and biological evaluation of polo-like kinase 1/eukaryotic elongation factor 2 kinase (PLK1/EEF2K) dual inhibitors for regulating breast cancer cells apoptosis and autophagy” (Eur J Med Chem, 2018):
The source made the active and inactive calls. No cut-off for these calls is given here.

Key:
[1] = tested on: BT-483; assay: Cytotoxicity against human BT-483 cells after 24 hrs by MTT assay; format: functional, cell-based; details: BT-483, 24 h
[2] = molecular target: Serine/threonine-protein kinase PLK1 (Homo sapiens, UniProt P53350); assay: Inhibition of full length human PLK1 at 20 uM using casein as substrate after 40 mins in presence of [gamma-33P]-ATP by radiometric assay relative to control
Sequence of Serine/threonine-protein kinase PLK1 (P53350 whole entry): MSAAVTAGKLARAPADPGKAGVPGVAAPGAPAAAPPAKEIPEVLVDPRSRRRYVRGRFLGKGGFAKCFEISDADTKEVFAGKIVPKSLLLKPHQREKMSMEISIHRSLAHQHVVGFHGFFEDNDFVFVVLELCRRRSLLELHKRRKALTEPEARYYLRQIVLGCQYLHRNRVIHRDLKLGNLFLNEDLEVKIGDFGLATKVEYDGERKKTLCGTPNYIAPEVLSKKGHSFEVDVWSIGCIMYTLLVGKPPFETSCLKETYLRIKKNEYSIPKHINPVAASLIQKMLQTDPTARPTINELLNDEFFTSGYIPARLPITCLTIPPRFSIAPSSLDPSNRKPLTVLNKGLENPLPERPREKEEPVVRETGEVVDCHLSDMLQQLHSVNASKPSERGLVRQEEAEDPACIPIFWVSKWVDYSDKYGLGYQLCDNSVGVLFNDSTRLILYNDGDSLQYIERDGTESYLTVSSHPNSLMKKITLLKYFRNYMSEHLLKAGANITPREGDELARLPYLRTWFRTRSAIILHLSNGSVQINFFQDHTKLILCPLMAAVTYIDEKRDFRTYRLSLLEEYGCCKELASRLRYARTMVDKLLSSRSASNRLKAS

[3] = tested on: MCF7; assay: Cytotoxicity against human MCF7 cells after 24 hrs by MTT assay; format: functional, cell-based; details: MCF7, 24 h
[4] = molecular target: T1, Eukaryotic elongation factor 2 kinase (Homo sapiens) (UniProt O00418); assay: Inhibition of GST-tagged EEF2K (unknown origin) at 20 uM using biotinylated EEF2 peptide substrate by HTRF assay relative to control
T1 sequence (whole entry): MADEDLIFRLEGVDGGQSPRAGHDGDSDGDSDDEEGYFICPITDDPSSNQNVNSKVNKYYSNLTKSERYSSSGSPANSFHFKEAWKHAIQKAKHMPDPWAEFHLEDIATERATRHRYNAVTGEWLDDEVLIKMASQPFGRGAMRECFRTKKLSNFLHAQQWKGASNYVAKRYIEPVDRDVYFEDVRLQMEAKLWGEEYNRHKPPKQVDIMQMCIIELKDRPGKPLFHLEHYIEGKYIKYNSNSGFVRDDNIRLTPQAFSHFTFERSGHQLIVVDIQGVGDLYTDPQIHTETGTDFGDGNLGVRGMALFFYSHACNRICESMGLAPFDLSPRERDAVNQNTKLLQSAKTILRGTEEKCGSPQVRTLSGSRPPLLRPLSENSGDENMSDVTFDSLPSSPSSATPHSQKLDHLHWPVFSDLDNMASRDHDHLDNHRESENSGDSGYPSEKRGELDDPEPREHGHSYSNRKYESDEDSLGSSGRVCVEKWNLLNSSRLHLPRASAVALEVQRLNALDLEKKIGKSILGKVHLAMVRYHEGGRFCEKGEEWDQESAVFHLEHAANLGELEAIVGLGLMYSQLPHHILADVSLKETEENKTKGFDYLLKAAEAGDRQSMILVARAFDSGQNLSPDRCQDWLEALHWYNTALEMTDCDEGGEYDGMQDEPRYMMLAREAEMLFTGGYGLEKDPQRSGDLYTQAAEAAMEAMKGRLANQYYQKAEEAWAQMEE

[5] = tested on: SK-BR-3; assay: Cytotoxicity against human SKBR3 cells after 24 hrs by MTT assay; format: functional, cell-based
[6] = tested on: ZR-75-1; assay: Cytotoxicity against human ZR-75-1 cells after 24 hrs by MTT assay; format: functional, cell-based
[7] = tested on: MDA-MB-231; assay: Cytotoxicity against human MDA-MB-231 cells after 24 hrs by MTT assay; format: functional, cell-based
[8] = tested on: BT-474; assay: Cytotoxicity against human BT474 cells after 24 hrs by MTT assay; format: functional, cell-based
[9] = tested on: MDA-MB-468; assay: Cytotoxicity against human MDA-MB-468 cells after 24 hrs by MTT assay; format: functional, cell-based

Row | inhibition [2] | inhibition [4] | Compound | IC50 [1] | IC50 [3] | Activity [5] | Activity [6] | Activity [7] | Activity [8] | Activity [9]
1 | 54.4% |  | CCNc1cc(-c2ccc(NC(=O)Nc3c(C)cccc3C)cc2OC)ccn1 | > 30 µM | 9.26 µM |  |  |  |  | 
2 | 82.7% | 73.4% | CCNc1cc(-c2ccc(NC(=O)Nc3cccc(Cl)c3)cc2C)ccn1 | 16.6 µM | 4.18 µM |  |  |  |  | 
3 | 40.7% | 34.6% | CCNc1cc(-c2ccc(NC(=O)Nc3ccc(C(F)(F)F)cc3)cc2OC)ccn1 | 25.6 µM | 19.5 µM |  |  |  |  | 
4 | 71.6% | 53.6% | CCNc1cc(-c2ccc(NC(=O)Nc3ccccc3Cl)cc2C(F)(F)F)ccn1 | 20.8 µM | 3.68 µM |  |  |  |  | 
5 | 53.6% | 6.4% | CCNc1cc(-c2ccc(NC(=O)Nc3ccccc3Cl)cc2OC)ccn1 | > 30 µM | 9.94 µM |  |  |  |  | 
6 | 31.1% | 9% | CCNc1cc(-c2ccc(NC(=O)Nc3ccc(OC)cc3)cc2OC)ccn1 | > 30 µM | 17.5 µM |  |  |  |  | 
7 | 51.3% | 33.3% | CCCNc1cc(-c2ccc(NC(=O)Nc3ccc(C(F)(F)F)cc3)cc2C(F)(F)F)ccn1 | 18.8 µM | 7.68 µM |  |  |  |  | 
8 | 54.1% | -4.29% | CCNc1cc(-c2ccc(NC(=O)Nc3cccc4ccccc34)cc2C(F)(F)F)ccn1 | > 30 µM | 16.3 µM |  |  |  |  | 
9 | 45.8% | 33.4% | CCNc1cc(-c2ccc(NC(=O)Nc3ccc(OC)cc3)cc2C)ccn1 | 25.8 µM | 9.95 µM |  |  |  |  | 
10 | 46.4% | 30.6% | CCNc1cc(-c2ccc(NC(=O)Nc3cccc(Cl)c3)cc2OC)ccn1 | 25.3 µM | 7.46 µM |  |  |  |  | 
11 |  |  | CC[C@@H]1C(=O)N(C)c2cnc(Nc3ccc(C(=O)NC4CCC(N5CCN(CC6CC6)CC5)CC4)cc3OC)nc2N1C(C)C (some centres not stated) |  |  | Active | Active | Active | Active | Active
12 | 49.2% | 21.7% | CCNc1cc(-c2ccc(NC(=O)Nc3ccccc3Cl)cc2C)ccn1 | > 30 µM | 8.35 µM |  |  |  |  | 
13 | 47.5% | 35.4% | CCNc1cc(-c2ccc(NC(=O)Nc3ccc(C)cc3)cc2C)ccn1 | 22 µM | 9.21 µM |  |  |  |  | 
14 | 55.8% | 41.2% | CCNc1cc(-c2ccc(NC(=O)Nc3ccc(C(F)(F)F)cc3)cc2F)ccn1 | 26.8 µM | 8.02 µM |  |  |  |  | 
15 | 66.1% | 37.2% | CCNc1cc(-c2ccc(NC(=O)Nc3cc(C(F)(F)F)cc(C(F)(F)F)c3)cc2C(F)(F)F)ccn1 | > 30 µM | 5.96 µM |  |  |  |  | 
16 | 62.1% | 51.3% | CCNc1cc(-c2ccc(NC(=O)Nc3ccc(OC)cc3)cc2C(F)(F)F)ccn1 | 17.6 µM | 5.74 µM |  |  |  |  | 
17 | 47.1% | 34.4% | CCNc1cc(-c2ccc(NC(=O)Nc3ccc(OC)cc3)cc2F)ccn1 | 19.6 µM | 14.1 µM |  |  |  |  | 
18 | 54.8% | 55.3% | CCNc1cc(-c2ccc(NC(=O)Nc3ccc(C(F)(F)F)cc3)cc2C)ccn1 | 19.7 µM | 6.87 µM |  |  |  |  | 
19 | 63% | 38.2% | CCCNc1cc(-c2ccc(NC(=O)Nc3cccc(Cl)c3)cc2C(F)(F)F)ccn1 | 18.5 µM | 8.23 µM |  |  |  |  | 
20 | 42.6% | 37.9% | CCNc1cc(-c2ccc(NC(=O)Nc3ccc(C)cc3)cc2C(F)(F)F)ccn1 | 27.1 µM | 9.47 µM |  |  |  |  | 
21 | 72.7% | 52.5% | CCNc1cc(-c2ccc(NC(=O)Nc3cccc(Cl)c3)cc2F)ccn1 | 18.5 µM | 6.94 µM |  |  |  |  | 
22 | 42.1% | 8.7% | CCNc1cc(-c2ccc(NC(=O)Nc3c(C)cccc3C)cc2C)ccn1 | > 30 µM | 7.92 µM |  |  |  |  | 
23 | 35.3% |  | CCNc1cc(-c2ccc(NC(=O)Nc3cccc4ccccc34)cc2C)ccn1 | > 30 µM | 15.5 µM |  |  |  |  | 
24 | 59.2% | 44% | CCNc1cc(-c2ccc(NC(=O)Nc3c(C)cccc3C)cc2C(F)(F)F)ccn1 | 22 µM | 6.95 µM |  |  |  |  | 
25 | 82.9% | 76.3% | CCNc1cc(-c2ccc(NC(=O)Nc3ccc(C(F)(F)F)cc3)cc2C(F)(F)F)ccn1 | 16.4 µM | 2.39 µM |  |  |  |  | 
26 | 63.8% | 27.8% | O=C(Nc1cccc(Cl)c1)Nc1ccc(-c2ccnc(NCC3CC3)c2)c(C(F)(F)F)c1 | > 30 µM | 17.4 µM |  |  |  |  | 
27 | 53.4% | 15.1% | O=C(Nc1ccc(C(F)(F)F)cc1)Nc1ccc(-c2ccnc(NCC3CC3)c2)c(C(F)(F)F)c1 | > 30 µM | 15.6 µM |  |  |  |  | 
